Reference: patent US10335417B2, “Thiazideamide derivative and use thereof” (Institute of Pharmacology and Toxicology Academy of …, priority 2015, dated 2019)

What was measured:
[1] = test system: BCAO-LBP mice (incomplete global cerebral ischemia); assay: mouse BCAO-LBP model of incomplete global cerebral ischemia: cerebral MDA content and neurological function score; type: in vivo, Kunmin mice; conditions: for Neurologic deficit score / MDA content: 30 mg/kg i.g. once/d for 3 d, x ± SEM; for Neurologic deficit score: behaviour within 6 h after ligation, model group 3.92, sham 0.00; for neurologic deficit score decreased compared to the group administered with Compound 6: 30 mg/kg i.g., BCAO-LBP mice; for MDA content: whole cerebrum, model group 40.94, sham 33.15
Text: In the Example, Kunmin mice were used as experimental subjects, intragastric (i.g.) administration was used, mouse BCAO-LBP (bilateral carotid artery occlusion with low blood pressure) model was used, and by determining neurological function score and the cerebral malondialdehyde (MDA) content in mice, the compounds were investigated for their protective effects on incomplete global cerebral ischemia in mice when administered prophylactically.
2.1.2 Preparation of a drug for intragastric administration: the compound was prepared to a 1.5 mg/ml solution using 0.7% CMC-Na solution.
28 mice, which had adapted to the laboratory environment for 1 week, were evenly grouped depending on body weight. The mice were intragastrically administered with 0.7% CMC-Na or one of the compounds, once/d, for 3 d. The groups were as followed:
Administration group: 12 mice, intragastrically administered at a dose of 0.2 ml/10 g, i.e., the dose of the compound was 30 mg/kg.
2.3.1 Mouse bilateral carotid artery ligation: 1 h after the last administration, the mice were subjected to orbital bloodletting to reduce blood pressure (which was about 30% of the total blood volume of the mice), and then fixed in supine position on the operating table, and cut in the middle of neck. Carotid artery was subjected to blunt dissection, and 2 lines were used in ligation for each side. The time counting started after the ligation with the third line, the carotid artery was cut off between the two lines, and the incision was sewn up. In the Sham-operated group, the carotid artery was only separated without ligation. After the operation, the mice were unfixed quickly, and the mice were observed and recorded for the behaviors within 6 h (scoring depending on the following table using blind method) and the death time. The brains were taken quickly after the mice died, the cerebellums were removed, and the MDA content in the whole cerebrum was determined by thiobarbituric acid (TBA).
The cerebra of mice were taken and weighed, and were prepared into 15% brain homogenate using N.S. 1.2 ml brain homogenate was placed in a 37° C. water bath for 1 h (shaking once every 10 min) and then taken out. 20% trichloroacetic acid 0.6 ml was added, and the mixture was mixed well, and was on standing for 10 min. After centrifugation at 2000 rpm for 10 min, to 1.2 ml supernatant, 0.67% TBA 0.6 ml was added. The mixture was placed in a boiling water bath for 10 min, and was taken out for cooling, and the OD value at a wavelength of 532 nm was determined.
The experimental data was expressed as x±SEM; SPSS 13.0 statistic software was used. Homogeneity or heterogeneity of variance was determined by one-factor analysis of variance. In the case of homogeneity of variance, LSD test was used; in the case of heterogeneity of variance, Dunnett's T3 test was used. Significant difference among different groups was compared, and P<0.05 indicated statistical significance.

[2] = in vitro; conditions: dog, MDCK-MDR1
Text: (§1) MDCK-MDR1 cells were monolayer cells which highly express P-gp transporter after transfection of MDCK (Madin-Darby canine kidney epithelial cell) with MDR1 gene. Due to its density and high expression of efflux protein, the monolayer has similarity compared to blood-brain barrier (BBB) structure and now can be used as one of models for evaluating the ability of passing through BBB. In the invention, MDCK-MDR1 cells were used to study the membrane permeability of the compounds according to the invention, and to primarily evaluate its ability of passing through BBB.
(§2) The frozen MDCK-MDR1 cells were quickly thawed in a 37° C. water bath. To the resuscitated cells, DMEM medium containing 10% FBS was added, and the cells were cultured in an incubator at 37° C., 5% CO2, and a relative humidity of 90%. The medium was changed every other day. After fusion of the cells growing for 1-2 days, the cells were digested with 0.25% trypsin-EDTA (0.2%) mixed digestion solution at 37° C., and were sub-cultured at a certain ratio. The cells for use in experiment were those passaged for 40-60 generations.
(§3) When the cell fusion degree reached 80%, the cells were digested and then suspended in complete medium, and seeded to Millicell plate at 1×10^6 cells·mL^−1. The medium was changed every other day, and 1 week later, the medium was changed every day. After culturing for 5 days, the resistance value reached a constant value (>200 Ω·cm^2), and the cells could be used in the transport experiment.
(§4) After washing with 37° C. HBSS twice, the cells were incubated in a 37° C. culture incubator, wherein Rho-123 was added to the upper wells, and HBSS was added to the bottom wells. The incubation was carried out in a constant temperature shaker, and the solutions from the bottom wells were collected at each time point (0 min, 30 min, 90 min, 120 min), and stored at −20° C. for further use. The amount of Rho-123 permeated to the bottom well was determined by fluorospectrophotometer, wherein the emission wavelength was […], and the excitation wavelength was 530 nm.
(§5) The permeability from cavity-surface to basal surface: drug-containing HBSS 0.35 mL was add to Apical (AP), and blank HBSS 1.2 mL was added to Basolateral (BL). The Millicell was placed at 37° C. in a shaker under shaking at 50 r·min^−1, 50 μL sample was collected from the bottom well at 0, 30, 90, 120 min, respectively, and the same volume of blank HBSS was supplemented. 3 wells were set for each concentration, and to the sample, an internal standard solution (50 μL) and ethyl acetate (350 μL) were added precisely. The mixture was mixed homogeneously under shaking, and centrifuged at 12000 rmp for 5 min. The supernatant (300 μL) was volatilized to dryness, and re-dissolved in 50 μL acetonitrile. The 10 μL resultant solution was used for determination.
(§6) The permeability from basal surface to cavity surface: the drug is added to Basolateral (BL), and blank HBSS was added to Apical (AP), and the other steps were the same as those of the experiment for determining the permeability from cavity-surface to basal surface.
(§7) The apparent permeability coefficient (Papp) of a drug reflects the ability of the drug to pass through cell monolayer and the drug absorption rate and extent. It can be calculated in accordance with the following equation: […]
(§8) wherein, Q represents the amount of drug permeated in the t period, A represents cell surface area, and represents the area (0.6 cm^2) of supporting film in this model, and C0 represents an initial concentration. The unit of Papp is expressed as cm·s^−1.
(§9) By measurement using LC/MS, the concentration of each sample was quantitated using its standard curve (50 nM-10000 nM).

[3] = test system: MDCK-MDR1 cells; assay: in vitro; conditions: dog, MDCK-MDR1, 120 min
Text: as §1, §2, §3, §4, §5, §6, §7, §8, §9

[4] = test system: chick embryo dorsal root ganglion; assay: in vitro serum-free culture model of chick embryonic dorsal root ganglion: neurite growth score with NGF; type: cell-based; conditions: for Average score (growth of neurites of chick embryo dorsal root ganglion): 48 h, score 0-3, average of five ganglions, control 0.33
Procedure: The neurotrophic activity of the compounds according to the invention can be embodied in multiple in vitro biological models, such as in vitro serum-free culture model of chick embryonic dorsal root ganglion.
Experimental method: in a sterile environment, chick embryo, which had been incubated for 8 d, had the spinal and bilateral ganglion exposed under anatomical lens. Dorsal root ganglions were picked one by one using sharp forceps, and seeded in culture bottles spread with rat tail collagen, at a density of 5-6 ganglions per bottle, and two bottles for each dose. After attachment culture in a 37° C., 5% CO2 incubator for 1 h, serum-free medium DMEM containing nerve growth factor (NGF) (0.15 ng/mL), and the compound according to the invention were added. In the control group, only the medium and the same dose of NGF were added. After culture in the incubator for 48 h, the growth of neurite around dorsal root ganglion was observed under inverted phase contrast microscope, which was scored depending on the length and density of neurite.
Evaluation criteria: 0: no neurite; 1: rare long neurite; 2: relatively long or dense neurite; 3: long and dense neurite.

[5] = compound 100 pM + NGF 0.15 ng/mL

| Papp at 120 min [2] | Papp value increased compared to Compound 6 [3] | Compound | Neurologic deficit score [1] | neurologic deficit score decreased compared to the group administered with Compound 6 [1] | MDA content [1] | Average score (growth of neurites of chick embryo dorsal root ganglion) ([4]; compound 1 pM + NGF 0.15 ng/mL) | Average score (growth of neurites of chick embryo dorsal root ganglion) [4, 5] | neurotrophic activity increased compared to Compound 6 ([4]; dose 1 pM) | neurotrophic activity increased compared to Compound 6 ([4]; dose 100 pM) |
| --- | --- | --- | --- | --- | --- | --- | --- | --- | --- |
| 45.8 ×10⁻⁶ cm/s | above 7% | CCc1ccc(S(=O)(=O)N2CCSC[C@H]2C(=O)NC(CC(C)C)C(=O)OC(C)C)cc1 (stereo in doubt) [Compound 28, (3R)-4-[(4-ethylbenzenesulfonyl)]tetrahydro-1,4-thiazin-3-carbonyl-L-leucine isopropyl ester] | 1.87 ± 0.31 | ~10% | 30.90 ± 1.65 nmol/g | 2.00 | 2.96 | 19% | 16% |
| 49.8 ×10⁻⁶ cm/s | above 7% | CCOC(=O)[C@@H](NC(=O)[C@@H]1CSCCN1S(=O)(=O)c1ccc(C)cc1)C(C)CC (stereo partly drawn) [Compound 7, (2S,3R)-ethyl-3-methyl-2((R)-(4-methylphenyl)sulfonyltetrahydro-1,4-thiazin-3-aminoformyl)valerate] |  |  |  | 1.46 | 1.95 |  |  |
| 44.2 ×10⁻⁶ cm/s | above 7% | Cc1ccc(S(=O)(=O)N2CCSC[C@H]2C(=O)N[C@@H](Cc2ccccc2)C(=O)OC(C)C)cc1 [Compound 23, (S)-isopropyl-3-phenyl-2((R)-(4-methylphenyl)sulfonyltetrahydro-1,4-thiazin-3-aminoformyl)propionate] | 1.81 ± 0.26 | ~13% | 31.87 ± 0.95 nmol/g | 2.12 | 3.21 |  |  |
